Results as given in patent US20170105999A1, “METHOD FOR TREATING DRUG RESISTANT CANCER” (NATIONAL YANG MING UNIVERSITY, priority 2014, published 2017).

Experiments:
A549 cells = assay: Transwell migration assay; assay type: cell-based; settings: A549, 10 μM, 24 hours, vs DMSO controls
From the text: EMT also plays a critical role in the regulation of cancer sternness. EMT is characterized by enhanced cell migration and invasion.

[1] = system: lung squamous cell carcinoma; assay: Case study, lung squamous cell carcinoma patient; assay type: in vivo, human; settings: person; prochlorperazine added to Tarceva (erlotinib); CT after 3 months
drug resistant cancer = assay: Clinical observation study, prochlorperazine added as maintenance therapy; settings: after prochlorperazine treatment added to salvage therapy; patients
Procedure: All of the cases were treated according to clinical guideline. Life expectancy of all patients was less than 3 months.

J5 = assay: Tumor spheroid (sphere formation) assay; assay type: cell-based; settings: J5, hepatocellular carcinoma
CL141 [2] = assay: Aldefluor assay (ALDH-positive cell population); assay type: cell-based; settings: CL141, adenocarcinoma
Procedure: (§1) Briefly, single cells obtained from cell cultures were incubated in an Aldefluor assay buffer containing an ALDH substrate (bodipy-aminoacetaldehyde, BAAA) for 50 minutes at 37° C.

CL97 [3] = assay: Aldefluor assay (ALDH-positive cell population); assay type: cell-based; settings: CL97, adenocarcinoma
Procedure: as §1

A549 [4] = assay: Aldefluor assay (ALDH-positive cell population); assay type: cell-based; settings: A549, adenocarcinoma
Procedure: as §1

H1299 [5] = assay: Tumor spheroid (sphere formation) assay
Procedure: In brief, single cells were plated in 6-well ultralow attachment plates (Coming Inc.) at a density of 2,000 cells/mL in tumor spheroid culture medium, DMEM/F12 supplemented with 1% N2 Supplement (Invitrogen), 10 ng/mL basic fibroblast growth factor (Sigma-Aldrich), 10 ng/mL epidermal growth factor (Invitrogen) with 1% penicillin/streptomycin (Invitrogen) at 37° C. in a humidified atmosphere of 95% air and 5% CO2. Cells were cultured twice per week. When passaged, tumor spheres were harvested. Spheroids were dissociated with TrypLE™ (Invitrogen). Spheroids cell counting using the Trypan Blue Exclusion method.

CL152 [6] = assay: Aldefluor assay (ALDH-positive cell population)
H226 = assay: Tumor spheroid (sphere formation) assay; assay type: cell-based; settings: H226, squamous cell carcinoma
CL152 [7] = assay: Cytotoxicity, sulforhodamine B (SRB) assay; assay type: cell-based; settings: read-out: IC50 for prochlorperazine metabolites, CL152 parental cells
Procedure: (§2) Cells were plated in 96-well plates at a density of 2000 cells per well in triplicate. The cells were treated on the third day (to ensure proper plating efficiency and vitality) to indicated agents for 48 hrs. […] Cytotoxicity was assessed using the sulforhodamine B (SRB) assay (23). Briefly, the medium was discarded, and the adherent cells were fixed by 100 μl of cold 10% trichioroacetic acid (w/v) in each well for 1 h at 4° C. After fixation, cells were stained with 100 μl/well of 0.4% (w/v, in 1% acetic acid) SRB solution for 30 min at room temperature, and then washed 5 times with 1% acetic acid. After air-drying, 100 μl of 10 mM Tris base was added to each well and the absorbance was read at 530 nm. Cytotoxicity is expressed as the percent of cells in drug treated wells relative to number of cells in the solvent only control (set to 100%). Each experiment was performed independently at least 2 times in triplicate and cytotoxicity is given as means ±SD.
(§3) A549, A549-ON, CL97, CL141, HCC827, and H441 were lung adenocarcinoma cell lines. CL152, H2170, and H226 were squamous cell carcinoma cell lines. Cell viability was determined by SRB assay. […] To determine whether side population (SP) cells, which represent a cell population with CSC characteristics, exist in NSCLC cell lines, we stained the cells with the fluorescent dye, Hoechst 33342, and analyzed the cells with flow cytometry.

CL141 [8] = assay: Cytotoxicity, sulforhodamine B (SRB) assay; assay type: cell-based; settings: read-out: IC50 for prochlorperazine metabolites, CL141 parental cells
Procedure: as §2, §3

PANC-1 = assay: Tumor spheroid (sphere formation) assay; assay type: cell-based; settings: PANC-1, pancreatic cancer
CL141 [9] = assay: Tumor spheroid (sphere formation) assay; assay type: cell-based
MDA-MB-231 = assay: Tumor spheroid (sphere formation) assay; assay type: cell-based; settings: MDA-MB-231, breast cancer
CL152 [10] = assay: Side population analysis by flow cytometry (Hoechst 33342); assay type: cell-based; settings: CL152, squamous cell carcinoma
Procedure: (§4) Single-cell suspensions of cells were detached from dishes with Trypsin-EDTA (Invitrogen) and suspended at 1×10^6 cells/mL in Hank's balanced salt solution ([…]) supplemented with 3% fetal calf serum and 10 mM Hepes. These cells were then incubated at 37° C. for 90 minutes with 20 μg/mL Hoechst 33342 (Sigma Chemical, St. Louis, Mo.). […] After 90 minutes incubation with indicated drugs, the cells were centrifuged immediately for 5 minutes at 300 g and 4° C. and resuspended in ice-cold HBSS, The cells were kept on ice to inhibit efflux of the Hoechst dye, and 1 μg/mL propidium iodide (PI, BD) were added to discriminate dead cells. Finally, these cells were filtered through a 40 μm cell strainer (BD) to obtain single-suspension cells. Cell dual-wavelength analysis and purification were performed on a dual-laser FACS Vantage SE (BD). Hoechst 33342 can be excited at 355 nm UV light and emitted blue fluorescence with a 450/20 band-pass (BP) filter and red fluorescence with a 675 nm edge filter long-pass (EFLP). A 610 nm dichroic mirror short-pass (DMSP) was used to separate the emission wavelengths. PI-positive (dead) cells were excluded from the analysis.
as §3

CL141 [11] = assay: as above; assay type: cell-based; settings: CL141, adenocarcinoma
Procedure: as §4, §3

CL97 [12] = assay: as above; assay type: cell-based; settings: CL97, adenocarcinoma
Procedure: as §4, §3

CL152 [13] = assay: Clonogenic assay; assay type: cell-based; settings: CL152, squamous cell carcinoma
Procedure: (§5) Tested cells were seeded respectively in 6 well plates with 10^4 cells per well for 14 days. […] After the treatments, cells were washed with PBS, and the colonies were fixed with fix solution (methanol: acetic acid=3:1) and stained with 0.5% crystal violet in methanol. After removing the crystal violet carefully and rinse with tap water, the colonies were counted manually.

CL97 [14] = assay: Clonogenic assay; assay type: cell-based; settings: CL97, adenocarcinoma
Procedure: as §5

GBM8401 = assay: Clonogenic assay; assay type: cell-based; settings: GBM8401, brain cancer
Procedure: as §5

H1299 [15] = assay: Clonogenic assay; assay type: cell-based; settings: H1299, large cell carcinoma
Procedure: as §5

A549 [16] = assay: Clonogenic assay; assay type: cell-based; settings: A549, adenocarcinoma
Procedure: as §5

Mahlavu = assay: Tumor spheroid (sphere formation) assay; assay type: cell-based; settings: liver cancer
H441 = assay: Side population analysis by flow cytometry (Hoechst 33342); assay type: cell-based, human; settings: H441, adenocarcinoma
Procedure: as §4, with “A 610 nm dichroic mirror short-pass (DMSP) was used to separate the emission wavelengths. PI-positive (dead) cells were excluded from the analysis.” left out
as §3, with “CL152, H2170, and H226 were squamous cell carcinoma cell lines.” left out

Structure (SMILES): CN1CCN(CCCN2c3ccccc3Sc3ccc(Cl)cc32)CC1 [prochlorperazine]
- cell migration (A549 cells): significantly inhibited cell migration
- CT follow-up of disease [1]: stable disease
- Median PFS (progression-free survival) (drug resistant cancer): 12.8 (7.0-20.1) months
- Sphere formation (J5): >5 µM
- ALDH^+ assay (CL141 [2]): <5 µM
- ALDH^+ assay (CL97 [3]): <5 µM
- ALDH^+ assay (A549 [4]): <5 µM
- sphere-forming ability (H1299 [5]; H1299): suppressed the sphere-forming ability
- Sphere formation (H1299 [5]; H1299, large cell carcinoma): 0 to 5 µM
- spheres number, combination with cisplatin (H1299 [5]; H1299, combination with cisplatin vs prochlorperazine or cisplatin alone): lower spheres number
- ALDH^+ CL152 population (CL152 [6]; CL152): decreased the ALDH^+ CL152 population in a dose-dependent manner
- ALDH^+ assay (CL152 [6]; CL152, squamous cell carcinoma): <5 µM
- Sphere formation (H226): 0 to 5 µM
- IC50 (CL152 [7]): 10 to 20 µM
- IC50 (CL141 [8]): 10 to 20 µM
- Sphere formation (PANC-1): 10 to 20 µM
- Sphere formation (CL141 [9]; CL141, adenocarcinoma): 0 to 2.5 µM
- number of spheres (CL141 [9]; CL141 sphere cells, 1, 2.5, 5 and 10 μM, 48 hours, concentration-dependent): reduced the number of spheres
- number of sphere cells, co-treatment (CL141 [9]; CL141 spheres, co-treatment with pemetrexed vs pemetrexed alone, 48 hours): significantly decreased the number of sphere cells
- Sphere formation (MDA-MB-231): 5 to 10 µM
- Side population (CL152 [10]): <5 µM
- Side population (CL141 [11]): >10 µM
- Side population (CL97 [12]): <5 µM
- Clonogenic assay (CL152 [13]): 5 to 10 µM
- Clonogenic assay (CL97 [14]): 5 to 10 µM
- Clonogenic assay (GBM8401): 3.33 to 10 µM
- Clonogenic assay (H1299 [15]): 5 to 10 µM
- Clonogenic assay (A549 [16]): 5 to 10 µM
- Sphere formation (Mahlavu): >5 µM
- Side population (H441): <5 µM
